Where two headings read alike, the source gives them in different places.
How the values were obtained:
[1] = tested on: Harmaline-induced tremor; conditions: for inhibition of tremors (tremor events): FIG. 1; for Minimally Efficacious Dose: oral dosing 30 min before 10 mg/Kg ip Harmaline, tremor events over 60 min
Procedure: The structure of each of these compounds is duplicated below.
Animals were administered with either Vehicle or compound (orally) 30 minutes prior to Harmaline administration (t=−30 minutes). Animals were then dosed ip with 10 mg/Kg Harmaline HCl in isotonic saline (t=0 minutes). Immediately following Harmaline administration, animals were monitored for 1 hour (t=0-60 minutes) to quantify the number of tremor events.
Tremor events were quantified via automated capture of forelimb tremor activity and confirmed by visual observation. Prior to testing, animals were fitted with a small metal band (0.5 g) on the right forepaw and acclimated to the testing apparatus for one hour. Immediately following Harmaline administration, animals were placed in the testing apparatus and tremor events were quantified for 60 minutes. A tremor event signal was generated when the transmitter band on the animal moved within the electromagnetic field generated by a loop antenna within the testing apparatus. Outputs from the amplifier were digitized at a sampling rate of 1,000 Hz and the signal was processed and analyzed using LabView software (National Instruments). […] Data were analyzed in one-minute bins over the course of the test and presented as the sum of tremor events over the entire 60 minute test.

[2] = in vitro; conditions: brain homogenate
Procedure: (§1) It is calculated as follows: CFB=CMB×BFF, where CMB is the concentration of compound measured by mass spectrometry from brains harvested immediately following tremor recording (Table 1, “Measured Brain Concentration”). CFB is the amount of free compound not complexed with protein and therefore free to interact with the SK2 channel (Table 1, “Calculated Free Brain Concentration”). BFF is average free fraction of compound as measured by equilibrium dialysis (Table 1, “Brain Free Fraction”). This was performed by using 1 μM of compound with 10% brain tissue homogenate in phosphate buffer saline. Incubation time was 5 hours at 37° C. and detection was by LC-MS/MS. Reference compound was carbazepine. Free drug in brain available to interact with SK2 channels (CFB) is arrived at by multiplying the measured total brain level (CMB) by the average free fraction (BFF).

[3] = male, Sprague Dawley, rat, in vivo; for Measured Brain Concentration: po
Procedure: as §1

[4] = tested on: harmaline-induced tremor; conditions: for tremor, power spectrum in 10-14 Hz band: 5 mg/kg ip harmaline, 30 minutes; for percent Motion Power (% MP): FIG. 3
Procedure: Whole body tremor was measured by a San Diego Instruments Tremor Monitor (San Diego, Calif., USA). […] Tremor was measured for 30 minutes following harmaline administration, and data were analyzed by fast Fourier transform and reported as a frequency power spectrum. […] Data were further analyzed by calculating the percent Motion Power (% MP), defined as the power in the 9-13 Hz band divided by the total power across the spectrum (0-30 Hz) multiplied by 100.

Row | fraction unbound at 5 h, 1 μM [2] | Calculated Free Brain Concentration [3] [µM] | Measured Brain Concentration [3] [µM] | Compound | inhibition of tremors (tremor events) ([1]; 60 mg/Kg orally) | Minimally Efficacious Dose [1] [mg/kg] | inhibition of tremors (tremor events) ([1]; 30 mg/Kg orally) | tremor, power spectrum in 10-14 Hz band ([4]; 3 mg/kg orally) | percent Motion Power (% MP) ([4]; 3 mg/kg orally, n=8, P<0.01 vs harmaline+vehicle) | tremor, power spectrum in 10-14 Hz band ([4]; 10 mg/kg orally) | percent Motion Power (% MP) ([4]; 10 mg/kg orally, n=16, P<0.05 vs harmaline+vehicle) | tremor, power spectrum in 10-14 Hz band ([4]; 30 mg/kg orally) | percent Motion Power (% MP) ([4]; 30 mg/kg orally, n=13, P<0.05 vs harmaline+vehicle)
1 | 0.048 | 0.15 | 3.1 | Cc1cc(C)n(-c2nc(NC3CCC(F)(F)CC3)cc(N3CCOCC3)n2)n1 [Compound 1] | significant inhibition of tremors | 60 |  |  |  |  |  |  | 
2 |  | 0.08 | 1.3 | Cc1ccn(-c2nc(NC3CCC(F)(F)CC3)cc(N3CCOCC3)n2)n1 [Compound 2] |  | 30 | significant inhibition of tremors | significantly reduced tremor | significantly reduced harmaline-induced tremor | significantly reduced tremor | significantly reduced harmaline-induced tremor | significantly reduced tremor | significantly reduced harmaline-induced tremor

Reference: patent publication US20180207138A1, “METHODS FOR THE TREATMENT OF TREMORS BY POSITIVE MODULATION OF SK CHANNELS” (Cadent Therapeutics, Inc., priority 2017, published 2018)
